# Reference: a melting point compilation (Tetko et al.; mined from patent text by program, amines drawn as free bases though some values may be those of a salt)
row,SMILES,melting point
1,CS(=O)(=O)Cc1c(C(=O)O)ccc2c1OC(F)(F)O2,107 to 109 °C
2,Oc1ccc(C(c2ccc(O)cc2)c2ccccc2CN2CCCc3ccccc32)cc1,160 to 163 °C
3,Cc1cnc(Br)c(F)c1,32 to 33 °C
4,Cc1ccc2c(c1)C=Cc1cc(C)ccc1C2c1cn(Cc2ccc(C(=O)Nc3nc(CC(=O)Nc4nc(CC(=O)O)cs4)cs3)o2)c(=O)[nH]c1=S,253 °C
5,CN(Cc1cccc2c1C(=O)N(C1CCC(=O)NC1=O)C2=O)C(=O)C1CC1 (centres undefined),243 to 245 °C
6,CSc1nc(N)c([N+](=O)[O-])c(N2CCS(=O)CC2)n1,239 to 242 °C
7,CC(C)NC1=NS(=O)(=O)c2c(Cl)cc(Cl)cc2N1,291 to 293 °C
8,CN(CC1CC=CCC1)c1ncnc2c1ncn2C1OC(CO)C(O)C1O (centres undefined),154 to 156 °C
9,Cc1nc2c3c(ccn2c1C)C(=O)C(O)C(c1ccsc1)N3 (centres undefined),222 to 225 °C
10,NC(=O)COC(=O)c1ccccc1,118 °C
11,O=C(CC1CCCC1)NC[C@H]1CN(c2ccc3c(c2)CCCc2cnoc2-3)C(=O)O1,193 to 195 °C
12,O=C1NC(=O)c2ccccc2/C1=C/Nc1ccc2ncccc2c1,277 to 278 °C
13,O=C(c1cccs1)c1cnn2c(-c3cccc(-c4ccc(CNCCN5CCOCC5)cc4)c3)ccnc12,100 to 106 °C
14,Cc1cc(C)c(N2CCCc3c2nn(C)c3Br)c(Cl)c1,106 to 107 °C
15,Cc1ncc2n1-c1ccc(C#N)cc1C(c1ccccc1F)=NC2,198 to 203 °C
16,COc1ccc2c(c1)C(c1ccc(N)cc1)=NN=C(C)C2,136 to 138 °C
17,COC(=O)c1cc(Cl)c(NC(C)=O)c2c1OCCC2,184 °C
18,Cn1c(Nc2c(Cl)ccc(CNC(=O)C(C)(C)C)c2Cl)nc2cc(C(=O)N[C@H]3CC[C@H](C(F)(F)F)CC3)c(N3CCC(C(F)(F)F)CC3)nc21,185 to 186 °C
19,O=c1[nH]c2cc(Br)ccc2c(=O)n1Cc1ccc(Br)cc1F,> 280 °C

row,SMILES,melting point
1,Nc1cccc(C2(O)CCOCC2)c1,154 to 155 °C
2,O=c1cccc2nccncc1-2,145 to 147 °C
3,Brc1ccc(-c2ccc(Br)cc2-c2nc3ccccc3[nH]2)c(-c2nc3ccccc3[nH]2)c1,326 to 328 °C
4,CN(C)C(C(=O)C1CCCCC1)C1(c2ccc(Cl)c(Cl)c2)CCC1 (centres undefined),79 to 80 °C
5,COC12CC(CCCO)CN(C)C1Cc1c[nH]c3cccc2c13 (centres undefined),190 to 195 °C
6,CC(=O)NS(=O)(=O)c1cc(C(=O)O)cc([N+](=O)[O-])c1Oc1ccccc1,270 to 271 °C
7,CC(C)C(C)(C)NC(N)=O,175 to 176 °C
8,Cc1nn(C)c(C2=NC(C)C(C)N2)c1N (centres undefined),250 °C
9,CCOc1nc(NCc2ccco2)nc(N2CCN(Cc3ccccn3)CC2)n1,115 to 117 °C
10,CC(C)(C)C1CCc2nnc(Cl)cc2C1 (centres undefined),96 to 97 °C
11,O=C(c1ccc(F)cc1)C1CCN(CCn2c(=O)[nH]c3ccsc3c2=O)CC1,141 to 143 °C
12,Cc1ccc(NC(=O)c2ccc(/C=C/C(=O)NOC3CCCCO3)cc2)cc1Nc1nc(-c2cccnc2)cs1 (centres undefined),168 °C
13,COC(=O)[C@@H]1C[C@H](OC(=O)c2ccc([N+](=O)[O-])cc2)C[C@H]1C(=O)OCc1ccccc1,79.5 °C
14,CN1CCc2cc([N+](=O)[O-])c(O)cc2C(c2ccc3c(c2)CCC3)C1 (centres undefined),58 to 63 °C
15,O=C1N(C(c2ccccc2)c2ccccc2)c2ccccc2C1(O)c1cc2c(cc1O)OCCO2 (centres undefined),210 to 212 °C
16,CC(C)(C)OC(=O)c1cc(N2CCOCC2)cc([N+](=O)[O-])c1,116 to 118 °C
17,O=C(NCc1ccc(Cl)cc1)c1cnc2ccc(CO)cc2c1O,288 to 289 °C
18,Cc1cc(-c2ccc(Cl)c(Cl)c2)nc(-c2ccnc(-c3ccc(S(N)(=O)=O)s3)c2)n1,267 °C
19,CNC(=O)Nc1ccc2c(c1Cl)C(c1ccccc1F)=NCC(=O)N2C,145 to 160 °C

row,SMILES,melting point
1,"CC(=O)NCC1CC(c2ccc(-n3ccc(CO)c3)c(F)c2)=NO1 (single isomer, unassigned; (-))",162 to 164 °C
2,Cc1c(Cl)ccc(S(C)(=O)=O)c1C=NO,164 to 168 °C
3,C1=C(c2ccc3ccccc3c2)CCN(Cc2c[nH]c3ncccc23)C1,223 to 225 °C
4,CCC1CCCC(C)C1=NC(C)COC (centres undefined),109 to 113 °C
5,O=C1C(Cc2ccccc2)C(C(F)(F)F)Nc2ccccc2N1Cc1ccccc1 (centres undefined),150 to 151 °C
6,NCc1ccn(C2=CC3=C(CC2)CCc2[nH]c(=O)c(=O)n(O)c23)c1,> 250 °C
7,CCCNC(=O)c1ccc(-c2ccc3nnn(C(C)(C)c4ccc5ncccc5c4)c3n2)cc1F,162 to 164 °C
8,CC(=O)Oc1c(C(C)(C)C)cc2oc(C=O)cc2c1C(C)(C)C,160 °C
9,OC(Cc1ccc(Cl)cc1)(Cn1ccnc1)c1ccc2c(c1)Cc1cc(Cl)ccc1-2 (centres undefined),218 °C
10,CN1C(C)(C(=O)OC(C)(C)C)COS1(=O)=O (centres undefined),54 to 55 °C
11,CC1(C)[C@@H](C=C(Cl)c2ccc(Cl)cc2)[C@@H]1C(=O)O (relative stereo),103 to 106 °C
12,COc1ccccc1-n1c(CCl)nc2ccccc2c1=O,193 to 194 °C
13,Cc1oc(-c2ccccc2)nc1CCC(=O)c1ccc(C=CC=O)cc1,119 to 120 °C
14,CN1N=C(c2ccc3c(c2)N(S(C)(=O)=O)CCO3)CCC1=O,162 to 165 °C
15,Cc1cnc(-c2ccc(C(F)(F)F)cc2)nc1Cl,110 to 112 °C
16,Cc1ncc2c(c1O)COC2S(C)(=O)=O (centres undefined),205 to 206 °C
17,COC(=O)c1nc(CCl)n(-c2ccc(Cl)cc2C(=O)c2ccccc2)n1,132 to 134 °C
18,O=C1CC(N2C=Nc3cccc(Br)c3C2)C(=O)N1 (centres undefined),214 to 217 °C
19,CCOC(=O)c1cn(Cc2c(F)cccc2F)c2sc(-c3ccccc3)c(CBr)c2c1=O,206 °C

# Next, values leading:
row,melting point,SMILES
1,95 °C,CC(C)(C)c1ccc(CNC(=O)NCc2ccc(NS(C)(=O)=O)c(F)c2)cc1
2,64 to 66 °C,COc1ccc(OC)c(SCCCCC#N)c1
3,161 to 162 °C,Cc1nn(-c2ccccn2)cc1COc1ccc(CC(=O)O)cc1
4,< 20 °C,CCOC(=O)C(C)(C)Oc1ccc(-c2ccc(CCNC(C)=O)cc2)cc1
5,155 to 157 °C,CC(=O)N(CCCC(=NNC(N)=S)c1ccc(F)cc1)C(C)C
6,129 °C,COc1ccc(-c2nc3c(F)cccc3s2)cc1OC
7,134 to 136 °C,Cc1nc2ccc(OCCCN3CCC(OC(c4ccccc4)c4ccccc4)CC3)nn2n1
8,212 to 214 °C,N#Cc1ccc2nc(-c3ccc(Br)o3)cn2c1
9,112 °C,CCc1ccc2[nH]c(C(=O)OC)cc2c1
10,49 to 50 °C,CCOC(=O)COc1c(OC2CCCCO2)cccc1[N+](=O)[O-] (centres undefined)
11,123 to 125 °C,CCc1ccc(OCCCN2CCN(c3ccc(Cl)nn3)CC2)cc1
12,185 °C,Cc1cc(COc2ccc(S(=O)(=O)NC[C@@H](C(=O)NO)N3CCN(S(C)(=O)=O)CC3)cc2)c2ccccc2n1
13,196 to 217 °C,O=C(O)CCC1(c2cccc(Cl)c2)NC(=O)NC1=O (centres undefined)
14,127 to 130 °C,COc1cc2c(-c3ccnc(NN)c3)c(CO)c(CO)cc2cc1OC1CCCC1
15,143 to 147 °C,CNC(CC(C)C)c1nc(-c2ccc3c(c2)Nc2ccccc2O3)cs1 (centres undefined)
16,286 to 288 °C,Cn1c(=O)[nH]c2nc3ccc(OCCCC(=O)O)cc3cc21
17,198 to 200 °C,COc1cc2ncnc(N3CCN(C(=S)Nc4ccc(Cc5ccncc5)cc4)CC3)c2cc1OC
18,82 to 82.8 °C,Cc1cc(C(=O)N2CCCC(C)C2)ccc1[N+](=O)[O-] (centres undefined)
19,92 to 94 °C,Nc1nc(OCc2cccs2)ncc1F
20,98 to 101 °C,CC(=O)OC1(C)CC(=O)OC(CCc2ccc(OCc3ccccc3)cc2)C1 (centres undefined)
21,81 °C,CCOC(=O)c1cnc2ccnn2c1O

row,melting point,SMILES
1,111 °C,"CN1C(=O)N(CC(CS(=O)(=O)c2ccc(Oc3ccc(Cl)cc3)cc2)N(O)C=O)C(=O)C1(C)C (single isomer, unassigned; (-))"
2,90 to 91 °C,COC(=O)c1cc(OCCc2nc(-c3ccccc3)oc2C)no1
3,161 to 164 °C,COc1ccc(C(=O)OC2C=C(C)C(=O)CC(C)(C)C2O)cc1OC (centres undefined)
4,128 to 129 °C,COc1ccc(S(=O)(=O)N2CCc3cccc(-c4cccs4)c32)cc1
5,> 320 °C,N#Cc1cn(Nc2c(Cl)cc(Cl)cc2Cl)c(=O)[nH]c1=O
6,97 to 98 °C,CC(C)C(C(=O)O)c1ccc(Br)cc1 (centres undefined)
7,112 to 114 °C,Cc1ccc(S(=O)(=O)C2=C(C(=O)OCC(C)C)C(=O)C=C(C(=O)OCC(C)C)C2=O)cc1
8,111 to 113 °C,CC(C)CCOc1c(-c2ccc(S(C)(=O)=O)cc2)cnn(CC(F)(F)F)c1=O
9,152 °C,COc1ccccc1Oc1c(Cl)ncnc1NS(=O)(=O)c1ccc(C(C)(C)C)cc1
10,92 °C,COC(=O)c1ccc2c(c1)C(=O)C(CC=O)C2 (racemic)
11,138 to 139 °C,Cn1c(CNC[C@H]2CCCO2)cc2cc(NC(=O)c3ccc(OCC4CC4)cc3)ccc21
12,200 to 202 °C,N#CCC1CCN(c2ccc(N3C[C@@H](Cn4cc(C#N)nn4)OC3=O)cc2F)CC1
13,123 °C,CC/C(=C\C#CC(O)(C(F)(F)F)C(F)(F)F)c1cccc(CCc2ccc(CO)c(CO)c2)c1
14,44 to 49 °C,COC(=O)C1=C(C)NC(C)=C(C(=O)OCCN2CCN(c3ccc(F)cc3)CC2)C1c1cccc(Cl)c1 (centres undefined)
15,87 to 92 °C,Ic1sc2ccccc2c1Oc1ccc(OCc2ccccc2)cc1
16,101 to 102 °C,Cc1c(C)n(CC2CC2C)c2c(OCc3ccc(F)cc3F)nncc12 (centres undefined)
17,171 to 175 °C,CCOC(=O)c1cnc(-c2ccccc2[N+](=O)[O-])[nH]c1=O
18,248 °C,N#CC1=C(C2CC2)Nc2n[nH]cc2C1c1cccc2nocc12 (centres undefined)
19,136 to 138 °C,O=C(O)CCCCc1ccc(NS(=O)(=O)c2ccccc2)cn1
20,192 °C,CN(C)C(=O)Nc1ccc(Oc2ccnc(Cl)n2)cc1
21,54 °C,CCCOC(=O)c1ccc(OCCCCCCCc2cc(C)no2)cc1
